pEC50: −log10 of the molar value.
Columns and labels:
human 14273 receptor [1] = target: T1, human 14273 receptor (Homo sapiens, UniProt Q5NUL3); assay: Reference Example A2: reactivity of fatty acids, intracellular calcium by FLIPR in CHO-K1 cells expressing human 14273 receptor; format: cell-based; conditions: 30 μM fatty acid; CHO-K1 cells transiently expressing human 14273; FLIPR (FIG. 1-5)
T1 construct: expressed in transfected cells
T1 sequence (Q5NUL3 1-361): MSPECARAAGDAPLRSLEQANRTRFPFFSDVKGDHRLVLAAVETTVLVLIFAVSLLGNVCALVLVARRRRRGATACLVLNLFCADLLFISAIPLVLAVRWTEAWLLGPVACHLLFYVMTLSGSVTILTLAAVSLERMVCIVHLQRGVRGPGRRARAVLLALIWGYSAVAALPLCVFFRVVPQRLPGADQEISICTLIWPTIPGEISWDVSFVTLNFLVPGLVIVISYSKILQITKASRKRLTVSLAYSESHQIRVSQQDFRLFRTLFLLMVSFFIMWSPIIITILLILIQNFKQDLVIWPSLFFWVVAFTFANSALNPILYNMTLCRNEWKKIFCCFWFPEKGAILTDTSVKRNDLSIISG
Procedure: (§1) CHO-K1 cell line was cultured using Ham's F-12 medium (Invitrogen) containing 10% fetal bovine serum (Invitrogen), unless otherwise described. On the day before transfection was conducted, 4.5×10^5 cells were dispersed per 10 cm^2, and cultured at 37° C. for 15 hours by a CO2 incubator adjusted to a CO2 concentration of 5%. Transfection was carried out using a Lipofectamine reagent (Invitrogen) in accordance with the instruction accompanying the reagent. In the case of using a 6-well plate as culture dish, the following steps were performed. First of all, two tubes having a volume of 1.5 ml each were provided, and 100 μl of an Opti-MEM-I medium (Invitrogen) was dispensed to each of the tubes. Next, after adding 1 μg of an expression vector to one tube and adding 6 μl of the Lipofectamine reagent to the other tube, both of them were mixed, and left at rest at room temperature for 20 minutes. A mixture for transfection, in which 800 μl of the Opti-MEM-I medium was added to this solution, was added to the CHO-K1 cells previously washed using the Opti-MEM-I medium, and then the cells were cultured in the CO2 incubator for 6 hours. The cells after culturing were rinsed using PBS (Invitrogen), then detached using a 0.05% trypsin/EDTA solution (Invitrogen), and recovered through centrifugation. The number of the obtained cells was measured, and the cells were diluted to a concentration of 5×10^4 cells per 100 μl of the medium. This dilution was separately injected to a Black-walled 96-well plate (Costar) in an amount of 100 μl per well, and then the cells were incubated overnight in a CO2 incubator. To the CHO-K1 cells which transiently expressed the receptor during the transfection operation, various test samples were added, and the change in the intracellular calcium concentration during this operation was measured using FLIPR (Molecular Device). In order to measure the change in the intracellular calcium concentration with FLIPR, the following pretreatment was performed. First, Assay Buffer for washing cells was prepared in order to add a fluorescent dye Fluo3-AM (DOJIN) to the cells, or to wash cells immediately before performing the FLIPR assay. To a solution prepared by adding 20 ml of 1 M HEPES (pH 7.4) (DOJIN) to 1000 ml of HBSS (Invitrogen) (hereinafter, HBSS/HEPES solution), 10 ml of a solution prepared by dissolving 710 mg of probenecid (Sigma) in 5 ml of a 1 N NaOH solution, and then further added 5 ml of the HBSS/HEPES solution thereto was added, and this solution was used as the Assay Buffer. […] After performing the pretreatment as described above, the changes in the intracellular calcium concentration after addition of various test samples were measured using FLIPR.

mouse 14273 receptor = target: T2, mouse 14273 receptor (Mus musculus, UniProt Q7TMA4); assay: Reference Example A2: reactivity of fatty acids, intracellular calcium by FLIPR in CHO-K1 cells expressing mouse 14273 receptor; format: cell-based; conditions: 30 μM fatty acid; CHO-K1 cells transiently expressing mouse 14273; FLIPR (FIG. 1-5)
T2 construct: expressed in transfected cells; host or cells: CHO-K1 cells, transient transfection with Lipofectamine
T2 sequence (Q7TMA4 1-361): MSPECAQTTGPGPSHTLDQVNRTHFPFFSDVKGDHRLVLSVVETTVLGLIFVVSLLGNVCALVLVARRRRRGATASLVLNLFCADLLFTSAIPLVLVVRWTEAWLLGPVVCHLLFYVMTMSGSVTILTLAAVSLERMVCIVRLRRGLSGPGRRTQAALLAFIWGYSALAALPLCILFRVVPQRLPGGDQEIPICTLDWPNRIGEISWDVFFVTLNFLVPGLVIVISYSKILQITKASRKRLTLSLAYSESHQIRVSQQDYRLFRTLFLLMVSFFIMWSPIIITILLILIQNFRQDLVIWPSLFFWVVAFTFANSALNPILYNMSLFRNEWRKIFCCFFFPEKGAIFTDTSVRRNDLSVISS
Procedure: as §1

AtT-20 cells = assay: Reference Example A10: inhibitory activity of fatty acids against CRF-induced ACTH secretion from AtT-20 cells; conditions: 10 nM CRF; 90 minutes; fatty acids conjugated with BSA; adhesive AtT-20 substrain (FIG. 13)
human 14273 receptor [2] = target: T1, human 14273 receptor; assay: Test Example 1: regulating effect for 14273 receptor function (agonist effect), change in intracellular calcium level by FLIPR; format: cell-based; conditions: CHO cell line (No. 104) expressing human 14273 receptor, change of fluorescent intensity after 35 seconds
Procedure: CHO cell lines (No. 104) in which a human 14273 receptor has expressed was diluted to contain 3×10^4/100 μl cells, and dispensed in Black walled 96-well plate (Costar) at a density of 100 μl/well, followed by culturing overnight in a CO2 incubator. A change in intracellular calcium level was measured using FLIPR (Molecular Device). The method is described as below. 50 μg of Fluo-3AM (DOJIN) was dissolved in 21 μl of DMSO (DOJIN) and an equal volume of 20% pluronic acid (Molecular Probes) was added thereto, followed by mixing them. The mixture was added to 10.6 ml of the assay buffer [which is prepared by adding 10 ml of a solution, which is prepared by adding 20 ml of 1 M HEPES (pH 7.4, DOJIN) to 1 L of HBSS (Invitrogen), dissolving 710 mg of probenecid (Sigma) in 5 ml of 1 N NaOH, and further adding 5 ml of the above-mentioned HBSS/HEPES solution and mixing it.] supplemented with 105 μl of fetal bovine serum to prepare a fluorescent dye solution. The medium of the cell plate was removed, the fluorescent dye solution was dispensed in 100 μl each per well. The culturing was performed in a CO2 incubator for 1 hour to incorporate the fluorescent dye into the cells. The cells after culturing were washed with the assay buffer. The compounds to be added to the cells were diluted to each concentration with a buffer solution to which CHAPS (DOJIN) was added in 0.015%, and dispensed in a plate for the test sample. Following the pretreatment above, a change in intracellular calcium level after addition of the compound was determined with FLIPR to investigate the agonist effect. An EC50 value was calculated from dose-reaction curve using the change of fluorescent intensity after 35 seconds from the reaction initiation.

3T3-L1 adipocytes = assay: Test Example 2: suppression of lipolysis (glycerol production) in differentiated 3T3-L1 adipocytes; format: cell-based, mouse; conditions: treated 45 minutes, isoproterenol 1×10^−10 M, compound 40 μM and 20 μM (FIG. 14)
Procedure: Influence on lipolysis was investigated with use of mouse fibroblast-like cell line 3T3-L1 cells that can differentiate to adipocyte. […] The 3T3-L cells were plated on a plate and cultured to become confluent. The cells were then treated for 48 hours in the medium containing 10 μg/ml of insulin, 0.5 mM of 3-isobutyl-1-methylxanthine (IBMX) and 2.5 μM of dexamethasone to induce differentiation into adipocytes. The culturing was continued for further 11 days. After the 3T3-L1 cells were differentiated into adipocytes, a change in the amount of glycerol produced after lipolysis was assayed. After the cells were washed with modified Krebs-Ringer buffer, they were treated with the compounds for 45 minutes, and the supernatant was then recovered. The glycerol content in the supernatant was determined using a Free Glycerol Determination Kit (Sigma).

Cl.NCCOc1cc(COc2ccc(CCC(=O)O)cc2F)cc(Oc2ccccc2)c1
melting point: 182 to 183 °C

CCCCC/C=C\C/C=C\CCCCCCCC(=O)O [linoleic acid]
response (increase in the intracellular calcium concentration) (human 14273 receptor [1]): specifically responsed | response (increase in the intracellular calcium concentration) (mouse 14273 receptor): specifically responsed

O=C(O)CCc1ccc(OCc2cccc(OCC(=O)O)c2)c(F)c1 [Example 107, 3-(4-{[3-(carboxymethoxy)benzyl]oxy}-3-fluorophenyl)propanoic acid]
melting point: 150 to 151 °C

CC/C=C\C/C=C\C/C=C\CCCCCCCC(=O)O [α-linolenic acid]
suppression of CRF-induced ACTH secretion (AtT-20 cells): significant suppression

CCCCC/C=C\C/C=C\C/C=C\CCCCC(=O)O [γ-linolenic acid]
response (increase in the intracellular calcium concentration) (human 14273 receptor [1]): specifically responsed | response (increase in the intracellular calcium concentration) (mouse 14273 receptor): specifically responsed | suppression of CRF-induced ACTH secretion (AtT-20 cells): significant suppression

O=C(O)CCc1ccc(OCc2cc(OCC(=O)O)cc(Oc3ccccc3)c2)c(F)c1 [Example 129, 3-(4-{[3-(carboxymethoxy)-5-phenoxybenzyl]oxy}-3-fluorophenyl)propanoic acid]
melting point: 122 to 124 °C

O=C(O)CCc1cc(F)c(OCc2ccccc2-c2ccccc2)c(F)c1 [Example 20, 4-([1,1′-Biphenyl]-2-ylmethoxy)-3,5-difluorobenzenepropanoic acid]
pEC50 (human 14273 receptor [2]): ≥ 5.00

O=C(O)CCc1ccc(OC2CCc3ccccc32)c(Cl)c1 (centres unmarked) [Reference Example 16, 3-Chloro-4-[(2,3-dihydro-1H-inden-1-yl)oxy]benzenepropanoic acid]
pEC50 (human 14273 receptor [2]): ≥ 5.00 | amount of glycerol production increased by isoproterenol stimulation (lipolysis) (3T3-L1 adipocytes): inhibitory effect | amount of glycerol production increased by isoproterenol stimulation (lipolysis) (3T3-L1 adipocytes; listed as Reference example 16): lowering the amount of the glycerol production

O=C(O)CCc1cc(F)c(OCc2cccc(Oc3ccccn3)c2)c(F)c1 [Example 60, 3-(3,5-difluoro-4-{[3-(pyridin-2-yloxy)benzyl]oxy}phenyl)propanoic acid]
pEC50 (human 14273 receptor [2]): ≥ 5.00

CCOc1cc(COc2ccc(CCC(=O)O)cc2F)cc(OCC)c1 [Example 96, 3-{4-[(3,5-diethoxybenzyl)oxy]-3-fluorophenyl}propanoic acid]
pEC50 (human 14273 receptor [2]): ≥ 5.00

O=C(O)CCc1cc(F)c(OCc2ccccc2Oc2ccccc2)c(F)c1 [Example 16, 3,5-Difluoro-4-[(2-phenoxyphenyl)methoxy]benzenepropanoic acid]
pEC50 (human 14273 receptor [2]): ≥ 5.00

O=C(O)CCc1ccc(OCc2ccccc2-c2ccccc2)c(Cl)c1 [Example 24, 4-([1,1′-Biphenyl]-2-ylmethoxy)-3-chlorobenzenepropanoic acid]
pEC50 (human 14273 receptor [2]): ≥ 5.00

O=C(O)CCc1ccc(OCc2cccc(Oc3ccc(Cl)cc3)c2)c(F)c1 [Example 163, 3-(3-fluoro-4-{[3-(4-chlorophenoxy)benzyl]oxy}phenyl)propanoic acid]
pEC50 (human 14273 receptor [2]): ≥ 5.00

CCCCC/C=C\C/C=C\C/C=C\C/C=C\CCCC(=O)O [arachidonic acid]
response (increase in the intracellular calcium concentration) (human 14273 receptor [1]): specifically responsed | response (increase in the intracellular calcium concentration) (mouse 14273 receptor): specifically responsed

CCCCCC/C=C\CCCCCCCC(=O)O [palmitoleic acid]
response (increase in the intracellular calcium concentration) (human 14273 receptor [1]): specifically responsed | response (increase in the intracellular calcium concentration) (mouse 14273 receptor): specifically responsed

O=C(O)CCc1ccc(OCc2cccc(-c3ccccc3)c2)c(Cl)c1 [Reference Example 18, 4-([1,1′-Biphenyl]-3-ylmethoxy)-3-chlorobenzenepropanoic acid]
pEC50 (human 14273 receptor [2]): ≥ 5.00

CCCC(=O)O [butyric acid]
suppression of CRF-induced ACTH secretion (AtT-20 cells): did not exhibit significant inhibition

O=C(O)CCc1ccc(OCc2ccccc2-c2ccccc2)c(F)c1 [Example 22, 4-([1,1′-Biphenyl]-2-ylmethoxy)-3-fluorobenzenepropanoic acid]
pEC50 (human 14273 receptor [2]): ≥ 5.00

O=C(O)CCc1ccc(OCc2cccc(Oc3ccccc3)c2)c(F)c1 [Example 12, 3-Fluoro-4-[(3-phenoxyphenyl)methoxy]benzenepropanoic acid]
pEC50 (human 14273 receptor [2]): ≥ 5.00

— patent publication US8008525B2, “Receptor function regulating agent” (Takeda Pharmaceutical Company Limited, priority 2003, dated 2011)
